Experimental data published in PubChem BioAssay AID248 (DTP/NCI, 2004).
Where “and” joins values, the source holds several entries; their conditions need not be identical. Identical values can stand only once. Toxic doses and inconclusive results are not listed.

Tested on: L1210 leukemia ip in BDF1 mice, survival T/C
Assay: NCI In Vivo Anticancer Drug Screen. Data for tumor model L1210 Leukemia (intraperitoneal) in B6D2F1 (BDF1) mice
Conditions: endpoint: mean survival time, higher = longer survival
Outline: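 Tumor was transplanted into mice, which were then dosed with test compound or vehicle alone. Survival was recorded for each group, and the treated figure was expressed relative to the control figure.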

[1] = dose: 100.0 mg/kg/injection, schedule: Q01DX009 (ip), vehicle: Klucel (hydroxypropylcellulose) (HPC)
[2] = dose: 100.0 mg/kg/injection, schedule: Q04DX003 (ip), vehicle: Klucel (hydroxypropylcellulose) (HPC)
[3] = dose: 200.0 mg/kg/injection, schedule: Q01DX009 (ip), vehicle: Klucel (hydroxypropylcellulose) (HPC)
[4] = dose: 200.0 mg/kg/injection, schedule: Q04DX003 (ip), vehicle: Klucel (hydroxypropylcellulose) (HPC)
[5] = dose: 400.0 mg/kg/injection, schedule: Q01DX009 (ip), vehicle: Klucel (hydroxypropylcellulose) (HPC)
[6] = dose: 400.0 mg/kg/injection, schedule: Q04DX003 (ip), vehicle: Klucel (hydroxypropylcellulose) (HPC)
[7] = dose: 6.25 mg/kg/injection, schedule: Q01DX009 (ip), vehicle: saline with Tween-80
[8] = dose: 12.5 mg/kg/injection, schedule: Q01DX009 (ip), vehicle: saline with Tween-80
[9] = dose: 100.0 mg/kg/injection, schedule: Q01DX001 (ip), vehicle: saline
[10] = dose: 200.0 mg/kg/injection, schedule: Q01DX001 (ip), vehicle: saline
[11] = dose: 400.0 mg/kg/injection, schedule: Q01DX001 (ip), vehicle: saline

Which results are given for `Cc1ccc(NC(=O)c2cccc(C(=O)Nc3ccc(C)c(C)c3)c2)cc1C`?
T/C [1]: 94 % of control; T/C [2]: 91 % of control; T/C [3]: 104 % of control; T/C [4]: 97 % of control; T/C [5]: 94 % of control; T/C [6]: 91 % of control

Which results are given for `C/C=C/C[P+](Cc1cccc(C)c1)(c1ccccc1)c1ccccc1`?
T/C (dose: 3.13 mg/kg/injection, schedule: Q01DX009 (ip), vehicle: saline with Tween-80): 107 % of control; T/C [7]: 113 % of control; T/C [8]: 98 % of control

How did the T/C (dose: 100.0 mg/kg/injection, schedule: Q01DX001 (ip), vehicle: other) turn out when `O=C(Nc1cccc2nsnc12)c1ccc(C(=O)Nc2cccc3nsnc23)cc1` was run?
The T/C was 94 % of control.

And the T/C (dose: 200.0 mg/kg/injection, schedule: Q01DX001 (ip), vehicle: other)?
Its T/C is 88 % of control.

What about the T/C (dose: 400.0 mg/kg/injection, schedule: Q01DX001 (ip), vehicle: other) of the same molecule?
Its T/C is 98 % of control.

`CC1(C)N=C(N)N=C(N)N1c1cccc(Cc2ccccc2)c1` was tested. Which T/C (dose: 25.0 mg/kg/injection, schedule: Q01DX001 (ip), vehicle: saline with Tween-80) did it give?
Its T/C is 92 % of control.

And the T/C (dose: 50.0 mg/kg/injection, schedule: Q01DX001 (ip), vehicle: saline with Tween-80)?
Its T/C is 106 % of control.

What does the source list for `COC1(OC)C(Cl)=C(Cl)C2C1C1(Cl)C(Cl)=C(Cl)C2(Cl)C1(OC)OC` (stereo unspecified)?
T/C (dose: 100.0 mg/kg/injection, schedule: Q01DX009 (ip), vehicle: saline with Tween-80): 98 % of control; T/C (dose: 200.0 mg/kg/injection, schedule: Q01DX009 (ip), vehicle: saline with Tween-80): 98 % of control; T/C (dose: 400.0 mg/kg/injection, schedule: Q01DX009 (ip), vehicle: saline with Tween-80): 96 % of control

With `N#Cc1ccc(N2CCCc3ccccc32)c([N+](=O)[O-])c1` as the molecule, how does the T/C [2] read?
Its T/C is 107 % of control.

And the T/C [4]?
Its T/C is 92 % of control.

What about the T/C [6] of the same molecule?
The T/C was 91 % of control.

What does the source list for `O=C(Nc1ccccc1)OC/C=C\c1ccccc1`?
T/C (dose: 200.0 mg/kg/injection, schedule: Q04DX002 (ip), vehicle: Klucel (hydroxypropylcellulose) (HPC)): 90 % of control; T/C (dose: 400.0 mg/kg/injection, schedule: Q04DX002 (ip), vehicle: Klucel (hydroxypropylcellulose) (HPC)): 93 % of control

Which T/C (dose: 50.0 micrograms/kg/injection, schedule: Q01DX009 (ip), vehicle: carboxymethylcellulose (CMC)) does the source give for `CNC(=S)N/N=C(\C=N\NC(=S)NC)c1ccccc1` here?
Its T/C is 88 % of control.

What does the source list for `Cc1cc(C#N)cc(C)c1N`?
T/C (dose: 75.0 mg/kg/injection, schedule: Q01DX001 (ip), vehicle: other): 100 % of control; T/C (dose: 150.0 mg/kg/injection, schedule: Q01DX001 (ip), vehicle: other): 95 % of control; T/C (dose: 300.0 mg/kg/injection, schedule: Q01DX001 (ip), vehicle: other): 105 % of control

For `Cc1nc(N)c2nc(-c3ccc(N(CCO)CCO)cc3)c(N)nc2n1`, which T/C [9] is on record?
The T/C was 98 % of control.

What about the T/C [10] of the same molecule?
The T/C was 95 % of control.

What about the T/C [11] of the same molecule?
Its T/C is 89 % of control.

Which T/C (dose: 100.0 mg/kg/injection, schedule: Q01DX001 (ip), vehicle: Klucel (hydroxypropylcellulose) (HPC)) does the source give for `CCCCCCCCCCCCCCCCCc1c(Cl)c(Cl)c(Cl)c(Cl)c1Cl` here?
Its T/C is 90 % of control.

For `C/C(CN(C)C)=N\O`, which T/C (dose: 100.0 mg/kg/injection, schedule: Q04DX002 (ip), vehicle: saline) is on record?
The T/C was 101 % of control.

What about the T/C (dose: 200.0 mg/kg/injection, schedule: Q04DX002 (ip), vehicle: saline) of the same molecule?
The T/C was 99 % of control.

What about the T/C (dose: 400.0 mg/kg/injection, schedule: Q04DX002 (ip), vehicle: saline) of the same molecule?
Its T/C is 92 % of control.

For `O=C(O)c1ccccc1CC(O)(c1ccccc1)C(O)(Cc1ccccc1C(=O)O)c1ccccc1` (stereo unspecified), which T/C (dose: 100.0 mg/kg/injection, schedule: Q01DX001 (ip), vehicle: carboxymethylcellulose (CMC)) is on record?
Its T/C is 94 % of control.

And the T/C (dose: 200.0 mg/kg/injection, schedule: Q01DX001 (ip), vehicle: carboxymethylcellulose (CMC))?
Its T/C is 102 % of control.

What about the T/C (dose: 400.0 mg/kg/injection, schedule: Q01DX001 (ip), vehicle: carboxymethylcellulose (CMC)) of the same molecule?
The T/C was 96 % of control.

How did the T/C [2] turn out when `O=C(CC(O)(C(F)(F)F)C(F)(F)F)c1cccc2ccccc12` was run?
The T/C was 97 % of control.

What about the T/C [4] of the same molecule?
The T/C was 90 % of control.

What about the T/C [6] of the same molecule?
The T/C was 90 % of control.

Which results are given for `CC(=O)C1=CCCCC1`?
T/C [2]: 96 % of control; T/C [4]: 105 % of control; T/C [6]: 93 % of control

For `C#CC1(O)CCCCC1`, which T/C [1] is on record?
The T/C was 108 % of control.

And the T/C [2]?
Its T/C is 94 % of control.

And the T/C [3]?
Its T/C is 97 % of control.

What about the T/C [4] of the same molecule?
Its T/C is 100 % of control.

And the T/C [5]?
Its T/C is 97 % of control.

What about the T/C [6] of the same molecule?
The T/C was 96 % of control.

Which results are given for `COc1cc(NC(=O)N(CCCl)N=O)cc(OC)c1OC`?
T/C (dose: 0.12 mg/kg/injection, schedule: Q01DX009 (ip), vehicle: saline): 105 % of control; T/C (dose: 0.25 mg/kg/injection, schedule: Q01DX009 (ip), vehicle: saline): 118 % of control; T/C (dose: 0.5 mg/kg/injection, schedule: Q01DX009 (ip), vehicle: saline): 112 % of control; T/C (dose: 1.0 mg/kg/injection, schedule: Q01DX009 (ip), vehicle: saline): 115 % of control; T/C (dose: 1.5 mg/kg/injection, schedule: Q01DX001 (ip), vehicle: carboxymethylcellulose (CMC)): 111 % of control; T/C (dose: 2.5 mg/kg/injection, schedule: Q01DX009 (ip), vehicle: saline): 161 % of control; T/C (dose: 3.0 mg/kg/injection, schedule: Q01DX001 (ip), vehicle: carboxymethylcellulose (CMC)): 108 % of control; T/C (dose: 5.0 mg/kg/injection, schedule: Q01DX009 (ip), vehicle: saline): 177 % of control; T/C (dose: 6.0 mg/kg/injection, schedule: Q01DX001 (ip), vehicle: carboxymethylcellulose (CMC)): 118 % of control; T/C (dose: 10.0 mg/kg/injection, schedule: Q01DX009 (ip), vehicle: saline): 164 % of control; T/C (dose: 11.0 mg/kg/injection, schedule: Q01DX009 (ip), vehicle: saline with Tween-80): 157 % of control and 216 % of control; T/C (dose: 12.0 mg/kg/injection, schedule: Q01DX001 (ip), vehicle: carboxymethylcellulose (CMC)): 151 % of control; T/C (dose: 15.0 mg/kg/injection, schedule: Q01DX009 (ip), vehicle: saline): 164 % of control; T/C (dose: 16.6 mg/kg/injection, schedule: Q01DX009 (ip), vehicle: saline with Tween-80): 223 % of control; T/C (dose: 22.0 mg/kg/injection, schedule: Q01DX009 (ip), vehicle: saline): 216 % of control; T/C (dose: 25.0 mg/kg/injection, schedule: Q01DX001 (ip), vehicle: carboxymethylcellulose (CMC)): 252 % of control; T/C (dose: 25.0 mg/kg/injection, schedule: Q01DX001 (ip), vehicle: saline): 155 % of control; T/C (dose: 25.0 mg/kg/injection, schedule: Q01DX009 (ip), vehicle: saline with Tween-80): 208 % of control; T/C (dose: 33.0 mg/kg/injection, schedule: Q01DX009 (ip), vehicle: saline): 178 % of control; T/C (dose: 37.5 mg/kg/injection, schedule: Q01DX001 (ip), vehicle: saline): 153 % of control; T/C (dose: 37.5 mg/kg/injection, schedule: Q01DX009 (ip), vehicle: saline with Tween-80): 110 % of control; T/C (dose: 50.0 mg/kg/injection, schedule: Q01DX001 (ip), vehicle: carboxymethylcellulose (CMC)): 106 % of control; T/C (dose: 50.0 mg/kg/injection, schedule: Q01DX009 (ip), vehicle: saline): 260 % of control; T/C (dose: 75.0 mg/kg/injection, schedule: Q01DX001 (ip), vehicle: carboxymethylcellulose (CMC)): 236 % of control; T/C (dose: 75.0 mg/kg/injection, schedule: Q01DX009 (ip), vehicle: saline): 173 % of control

Which T/C [7] does the source give for `O=[N+]([O-])/C=C/c1ccc2ccccc2n1` here?
The T/C was 97 % of control.

What about the T/C [8] of the same molecule?
Its T/C is 97 % of control.

And the T/C (dose: 50.0 mg/kg/injection, schedule: Q01DX009 (ip), vehicle: saline with Tween-80)?
Its T/C is 87 % of control.

And the T/C (dose: 100.0 mg/kg/injection, schedule: Q04DX003 (ip), vehicle: saline with Tween-80)?
Its T/C is 93 % of control.

What about the T/C (dose: 200.0 mg/kg/injection, schedule: Q04DX003 (ip), vehicle: saline with Tween-80) of the same molecule?
Its T/C is 95 % of control.

Which T/C (dose: 50.0 mg/kg/injection, schedule: Q04DX003 (ip), vehicle: saline) does the source give for `O=P(CCl)(CCCl)CCCl` here?
The T/C was 101 % of control.

And the T/C (dose: 100.0 mg/kg/injection, schedule: Q04DX003 (ip), vehicle: saline)?
Its T/C is 103 % of control.

What about the T/C (dose: 200.0 mg/kg/injection, schedule: Q04DX003 (ip), vehicle: saline) of the same molecule?
The T/C was 103 % of control.

And the T/C (dose: 400.0 mg/kg/injection, schedule: Q04DX003 (ip), vehicle: saline)?
Its T/C is 89 % of control.

Which results are given for `O=c1ccn(C2SC(CO)C(O)C2O)c(=O)[nH]1` (stereo unspecified)?
T/C (dose: 50.0 mg/kg/injection, schedule: Q01DX001 (ip), vehicle: saline): 108 % of control; T/C [9]: 100 % of control; T/C [10]: 88 % of control; T/C [11]: 108 % of control
